Reference: patent US7384965B2, “Fused heterocyclic derivatives as PPAR modulators” (Eli Lilly and Company, priority 2003, dated 2008)

Structure (SMILES) | melting point
Cc1cc(SCc2cccc3[nH]c(-c4ccc(C(F)(F)F)cc4)cc23)ccc1OCC(=O)O [Example 93, 2-Methyl-4-[2-(4-trifluoromethylphenyl)-1H-indol-4-ylmethylsulfanyl]phenoxyacetic Acid] | 85 to 88 °C
Cc1cc(SCc2ccnc3[nH]c(-c4ccc(C(F)(F)F)cc4)nc23)ccc1OCC(=O)O [Example 103, 2-Methyl-4-[2-(4-trifluoromethylphenyl)-3H-imidazo[4,5-b]pyridin-7-ylmethylsulfanyl]phenoxyacetic Acid] | 239 to 241 °C
CCc1cc(OC(C)c2cccc3nc(-c4ccc(C(F)(F)F)cc4)oc23)ccc1CCC(=O)O (racemic) [Example 84, (+/−)-3-(2-Ethyl-4-{1-[2-(4-trifluoromethylphenyl)benzooxazol-7-yl]ethoxy}phenyl)propionic Acid] | 60 to 63 °C
O=C(O)Cc1cccc(SCc2ccnc3oc(-c4ccc(C(F)(F)F)cc4)nc23)c1 [Example 99, 3-[2-(4-Trifluoromethylphenyl)oxazolo[5,4-b]pyridin-7-ylmethylsulfanyl]phenylacetic Acid] | 164 to 166 °C
O=C(O)Cc1csc2cc(OCc3cccc4sc(-c5ccc(C(F)(F)F)cc5)nc34)ccc12 [Example 42, 6-[2-(4-Trifluoromethylphenyl)benzothiazol-4-ylmethoxy]benzo[b]thiophen-3-ylacetic Acid] | 185 to 190 °C
CCc1cc(SCc2ccnc3oc(-c4ccc(C(F)(F)F)cc4)nc23)ccc1OCC(=O)O [Example 97, 2-Ethyl-4-[2-(4-trifluoromethylphenyl)oxazolo[5,4-b]pyridin-7-ylmethylsulfanyl]phenoxyacetic Acid] | 59 to 62 °C
CCc1cc(SCc2cccc3[nH]c(-c4ccc(C(F)(F)F)cc4)nc23)ccc1OCC(=O)O [Example 87, 2-Ethyl-4-[2-(4-trifluoromethylphenyl)-1H-benzoimidazol-4-ylmethylsulfanyl]phenoxyacetic Acid] | 223 °C (dec.)
Cn1c(-c2ccc(C(F)(F)F)cc2)nc2c(CSc3cccc(CC(=O)O)c3)cccc21 [Example 92, 3-[1-Methyl-2-(4-trifluoromethylphenyl)-1H-benzoimidazol-4-ylmethylsulfanyl]phenylacetic Acid] | 178 to 180 °C
CCc1cc(SC(C)(C)c2cccc3nc(-c4ccc(C(F)(F)F)cc4)oc23)ccc1OCC(=O)O [Example 77, 2-Ethyl-4-{1-methyl-1-[2-(4-trifluoromethylphenyl)benzooxazol-7-yl]ethylsulfanyl}phenoxyacetic Acid] | 122 to 125 °C
O=C(O)Cc1cccc(SCc2cccc3[nH]c(-c4ccc(C(F)(F)F)cc4)nc23)c1 [Example 88, 3-[2-(4-Trifluoromethylphenyl)-1H-benzoimidazol-4-ylmethylsulfanyl]phenylacetic Acid] | 180 to 183 °C
CCc1cc(SCc2cccc3nc(-c4ccc(C(F)(F)F)cc4)oc23)ccc1OCC(=O)O [Example 72, 2-Ethyl-4-[2-(4-trifluoromethylphenyl)benzooxazol-7-ylmethylsulfanyl]phenoxyacetic Acid] | 170 to 173 °C
O=C(O)Cc1cccc(SCc2ccnc3[nH]c(-c4ccc(C(F)(F)F)cc4)nc23)c1 [Example 107] | 213 to 215 °C
Cc1cc(OC(C)c2cccc3nc(-c4ccc(C(F)(F)F)cc4)oc23)ccc1CCC(=O)O (racemic) [Example 83, (+/−)-3-(2-Methyl-4-{1-[2-(4-trifluoromethylphenyl)benzooxazol-7-yl]ethoxy}phenyl)propionic Acid] | 142 to 144 °C
O=C(O)Cc1csc2cc(OCc3cccc4nc(-c5ccc(C(F)(F)F)cc5)oc34)ccc12 [Example 70, 6-[2-(4-Trifluoromethylphenyl)benzooxazol-7-ylmethoxy]benzo[b]thiophen-3-ylacetic Acid] | 215 to 216 °C
Cc1cc(SC(C)(C)c2cccc3nc(-c4ccc(C(F)(F)F)cc4)oc23)ccc1OCC(=O)O [Example 75, 2-Methyl-4-{1-methyl-1-[2-(4-trifluoromethylphenyl)benzooxazol-7-yl]ethylsulfanyl}phenoxyacetic Acid] | 131 to 133 °C
Cc1cc(SC(C)c2cccc3nc(-c4ccc(C(F)(F)F)cc4)oc23)ccc1OCC(=O)O (racemic) [Example 79, (+/−)-2-Methyl-4-{1-[2-(4-trifluoromethylphenyl)benzooxazol-7-yl]ethylsulfanyl}phenoxyacetic Acid] | 134 to 138 °C
CCc1cc(SCc2ccnc3c2nc(-c2ccc(C(F)(F)F)cc2)n3C)ccc1OCC(=O)O [Example 109, 2-Ethyl-4-[3-methyl-2-(4-trifluoromethylphenyl)-3H-imidazo[4,5-b]pyridin-7-ylmethylsulfanyl]phenoxyacetic Acid] | 118 to 120 °C
CCc1cc(SC(C)c2cccc3nc(-c4ccc(C(F)(F)F)cc4)oc23)ccc1OCC(=O)O (racemic) [Example 81, (+/−)-2-Ethyl-4-{1-[2-(4-trifluoromethylphenyl)benzooxazol-7-yl]ethylsulfanyl}phenoxyacetic Acid] | 172 to 175 °C

Results, then the compound that gave them:

melting point | Structure (SMILES)
176 to 178 °C | CCc1cc(SCc2ccnc3sc(-c4ccc(C(F)(F)F)cc4)nc23)ccc1OCC(=O)O [Example 102, 2-Ethyl-4-[2-(4-trifluoromethylphenyl)thiazolo[5,4-b]pyridin-7-ylmethylsulfanyl]phenoxyacetic Acid]
198 to 200 °C | Cc1cc(OCc2ccc3nc(-c4ccc(C(F)(F)F)cc4)sc3c2)ccc1CCC(=O)O [Example 60, 3-{2-Methyl-4-[2-(4-trifluoromethylphenyl)benzothiazol-6-ylmethoxy]phenyl}propionic Acid]
140 to 142 °C | CCc1cc(SCc2ccc3sc(-c4ccc(C(F)(F)F)cc4)nc3c2)ccc1OCC(=O)O [Example 53, 2-Ethyl-4-[2-(4-trifluoromethylphenyl)benzothiazol-5-ylmethylsulfanyl]phenoxyacetic Acid]
214 to 216 °C | Cc1cc(SCc2cccc3[nH]c(-c4ccc(C(F)(F)F)cc4)nc23)ccc1CCC(=O)O [Example 86, 3-{2-Methyl-4-[2-(4-trifluoromethylphenyl)-1H-benzoimidazol-4-ylmethylsulfanyl]phenyl}propionic Acid]
193 to 196 °C | Cc1cc(SCc2cccc3nc(-c4ccc(C(F)(F)F)cc4)sc23)ccc1OCC(=O)O [Example 44, 2-Methyl-4-[2-(4-trifluoromethylphenyl)benzothiazol-7-ylmethylsulfanyl]phenoxyacetic Acid]
89 to 92 °C | CCc1cc(SCc2cccc3sc(-c4ccc(C(F)(F)F)cc4)nc23)ccc1OCC(=O)O [Example 40]
180 to 182 °C | Cc1cc(SCc2ccnc3[nH]c(-c4ccc(C(F)(F)F)cc4)nc23)ccc1CCC(=O)O [Example 104, 3-{2-Methyl-4-[2-(4-trifluoromethylphenyl)-3H-imidazo[4,5-b]pyridin-7-ylmethylsulfanyl]phenyl}propionic Acid]
65 to 70 °C | Cc1cc(SCc2ccnc3sc(-c4ccc(C(F)(F)F)cc4)nc23)ccc1CCC(=O)O [Example 101, 3-{2-Methyl-4-[2-(4-trifluoromethylphenyl)thiazolo[5,4-b]pyridin-7-ylmethylsulfanyl]phenyl}propionic Acid]
97 to 100 °C | Cc1cc(SCCc2cccc3sc(-c4ccc(C(F)(F)F)cc4)nc23)ccc1OCC(=O)O [Example 48, 2-Methyl-4-{2-[2-(4-trifluoromethylphenyl)benzothiazol-4-yl]ethylsulfanyl}phenoxyacetic Acid]
84 to 86 °C | CCc1cc(SCCc2cccc3sc(-c4ccc(C(F)(F)F)cc4)nc23)ccc1OCC(=O)O [Example 50, 2-Ethyl-4-{2-[2-(4-trifluoromethylphenyl)benzothiazol-4-yl]ethylsulfanyl}phenoxyacetic Acid]
128 to 130 °C | Cc1cc(SC(C)c2cccc3nc(-c4ccc(C(F)(F)F)cc4)oc23)ccc1CCC(=O)O (racemic) [Example 80, (+/−)-3-(2-Methyl-4-{1-[2-(4-trifluoromethylphenyl)benzooxazol-7-yl]ethylsulfanyl}phenyl)propionic Acid]
168 to 170 °C | Cc1cc(SCc2cccc3c2nc(-c2ccc(C(F)(F)F)cc2)n3C)ccc1CCC(=O)O [Example 90, 3-{2-Methyl-4-[1-methyl-2-(4-trifluoromethylphenyl)-1H-benzoimidazol-4-ylmethylsulfanyl]phenyl}propionic Acid]
136 to 139 °C | Cc1cc(SCc2cccc3nc(-c4ccc(C(F)(F)F)cc4)sc23)ccc1CCC(=O)O [Example 46, 3-{2-Methyl-4-[2-(4-trifluoromethylphenyl)benzothiazol-7-ylmethylsulfanyl]phenyl}propionic Acid]
180 to 182 °C | Cc1cc(SCc2cccc3nc(-c4ccc(C(F)(F)F)cc4)oc23)ccc1OCC(=O)O [Example 68, 2-Methyl-4-[2-(4-trifluoromethylphenyl)-benzooxazol-7-ylmethylsulfanyl]-phenoxyacetic Acid]
194 to 196 °C | Cc1cc(SCc2ccc3nc(-c4ccc(C(F)(F)F)cc4)sc3c2)ccc1CCC(=O)O [Example 58, 3-{2-Methyl-4-[2-(4-trifluoromethylphenyl)benzothiazol-6-ylmethylsulfanyl]phenyl}propionic Acid]
188 to 190 °C | CCc1cc(OCc2ccc3sc(-c4ccc(C(F)(F)F)cc4)nc3c2)ccc1CCC(=O)O [Example 55, 3-{2-Ethyl-4-[2-(4-trifluoromethylphenyl)benzothiazol-5-ylmethoxy]phenyl}propionic Acid]
108 to 110 °C | Cc1cc(SCCc2ccc3sc(-c4ccc(C(F)(F)F)cc4)nc3c2)ccc1CCC(=O)O [Example 56, 3-(2-Methyl-4-{2-[2-(4-trifluoromethylphenyl)benzothiazol-5-yl]ethylsulfanyl}phenyl)propionic Acid]
138 to 140 °C | Cc1cc(SCc2ccc3sc(-c4ccc(C(F)(F)F)cc4)nc3c2)ccc1OCC(=O)O [Example 51, 2-Methyl-4-[2-(4-trifluoromethylphenyl)benzothiazol-5-ylmethylsulfanyl]phenoxyacetic Acid]
